Assay results from PubChem BioAssay AID179 (DTP/NCI, 2004).
Where “and” joins values, the source holds several entries; their conditions need not be identical. Identical values can stand only once. Calls of active or inactive are those of the source.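 Rule for the calls: active = compounds giving half or more protection of infected cells from virus-caused growth loss, again on retest; inactive = the rest.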 Where a SMILES comes first, the peptide text is derived from it. [ ]: non-standard residue; d: D form. The star is where a group is joined. ξ: configuration not given here. Fmoc = O=C(OCC1c2ccccc2-c2ccccc21)*; ξF = NC(Cc1ccccc1)C(=O)O; Cbz = O=C(OCc1ccccc1)*; Aib = CC(C)(N)C(=O)O; OtBu = CC(C)(C)O*

System: CEM cells HIV-1 protection, formazan growth assay
Assay: NCI AIDS Antiviral Assay
Conditions: for IC50: measured here: growth of uninfected CEM cells
In short: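 Five concentrations of each compound were applied to infected and uninfected human CEM cells. Protection from HIV-1 was judged from growth measured with a soluble formazan assay.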

| SMILES | EC50 [µM] | IC50 | outcome |
| --- | --- | --- | --- |
| O=C(O)c1ccc([N+](=O)[O-])c2cc3cnccc3nc12 | > 200 | 2.88 µM | – |
| CN1CCC2c3c([nH]c4ccccc34)C(C)(C)OC2C1 (stereo unspecified) | > 200 | > 200 µM | – |
| CCCCCCCCCCCCNC(=S)OCCCC | – | – | inactive |
| CN1/C(=C/C=C/C=C/C=C2C(=O)c3ccccc3C2=O)C(C)(C)c2ccccc21 | 120 | 151 µM | – |
| Cn1c2c(c3ccccc31)C1C(=O)N(c3ccccc3)C(=O)C1CC2 (stereo unspecified) | > 57.5 | > 57.5 µM | – |
| Cc1cccc(NC(=O)C(=O)C2C(=O)NC(=O)NC2=O)c1C | > 832 | 794 µM | – |
| ClC1c2ccccc2-c2nsnc2C1Cl (stereo unspecified) | > 28.2 | > 28.2 µM | – |
| O=c1c2cc([N+](=O)[O-])ccc2n2n1CCCC2 | > 200 | > 200 µM | – |
| O=C1CC2O[C@H](c3ccccc3)OC2CO1 (stereo partly specified) | > 200 | 93.3 µM | – |
| COC(=O)C(Cc1nc2ccccc2[nH]c1=O)C(=O)C(=O)Nc1cc(C(F)(F)F)ccc1Cl (stereo unspecified) | > 74.1 | 7.41 µM | – |
| NC(=O)c1cc(NC(=O)c2ccc(C(=O)Nc3cc(C(N)=O)cc(C4=NCCN4)c3)cc2)cc(C2=NCCN2)c1 | > 100 | > 100 µM | – |
| Cc1ccc(NC(=O)CC(=O)N2N=C(N3CCCCC3)CC2c2ccccc2)cc1 (stereo unspecified) | > 200 | > 200 µM | – |
| O=C1/C(=C/c2ccc(Cl)cc2)CCC/C1=C\c1ccc(O)c(CN2CCCCC2)c1 | > 100 | 5.25 µM | – |
| CC1C/C(=N\N(C)C)C(C#N)(C#N)C1(C#N)C#N (stereo unspecified) | > 200 | 6.03 µM | – |
| O=C(S)C(=O)Cc1nnn(-c2ccccc2)c1-c1ccccc1 | > 245 | > 245 µM | – |
| CSc1n(CC(=O)OC(C)(C)C)nc[n+]1N | > 200 | > 200 µM | – |
| COc1c(OC)c(C2(O)C(=O)N(C)c3ccccc32)c2c(c1C1(O)C(=O)N(C)c3ccccc31)OCO2 (stereo unspecified) | > 200 | > 200 µM | – |
| CC1=NNC(N)=N/C1=C\C(Sc1ccc(Cl)cc1)c1ccc(Cl)cc1Cl (stereo unspecified) | > 112 | 18.6 µM | – |
| CCOC(=O)C(CC(C)C)NC(=O)C(Cc1ccc(N(CCCl)CCCl)cc1)NC(C)=O (stereo unspecified) | > 10.7 | 0.132 µM | – |
| COC(=O)C(Cc1ccc2c(c1)CCC2)Cc1ccc2c(c1)CCC2 | > 200 | 112 µM | – |
| C=C[C@@]1(O)CCCC2=C(C(=O)OCC)CC[C@]21C | – | – | inactive |
| CC1=C(C(=O)Nc2ccccc2C)C(c2ccccc2C)C(C(=O)Nc2ccccc2C)=C(C)N1 | > 15.5 | > 15.5 µM | – |

| SMILES | EC50 [µM] | IC50 | outcome |
| --- | --- | --- | --- |
| CCCCOCn1c(=O)[nH]c(=O)c2cc(Br)ccc21 | > 200 | 93.3 µM | – |
| COCCCCCCCCCCC(=O)OCC1OC(n2cc(C)c(=O)[nH]c2=O)CC1N=[N+]=[N-] (stereo unspecified) | – | 117 µM | active |
| CC1COS(=O)N1c1ccccc1 (stereo unspecified) | > 479 | > 479 µM | – |
| CC1=C(C(=O)Nc2cc(F)c(F)cc2F)C(c2ccc(N(C)C)cc2)C(C(=O)Nc2cc(F)c(F)cc2F)=C(C)N1 | > 23.4 | > 23.4 µM | – |
| COc1cc2c(c3oc4c(c(=O)c13)CCCC4)CCC(C)(C)O2 | > 56.2 | 23.4 µM | – |
| COc1ccc2[nH]c3c4c(ccc3c2c1)C(=O)C=CC4=O | > 93.3 | 4.47 µM | – |
| O=C1OC2C3Cc4ccccc4N2C1C3 (stereo unspecified) | > 646 | 363 µM | – |
| CC1C(O)Oc2cc3c(cc2C1c1ccccc1O)OCO3 (stereo unspecified) | > 200 | 35.5 µM | – |
| COC(=O)C1CCC(=O)C(Sc2ccccc2)C1 (stereo unspecified) | > 97.7 | 43.7 µM | – |
| O=C(CSc1nc(-c2ccccc2)c(-c2ccccc2)[nH]1)N/N=C/c1ccc(O)cc1 | > 43.7 | 9.77 µM | – |
| CC12c3ccccc3C(C)(c3c1ccc1ccccc31)C1C(=O)OC(=O)C12 (stereo unspecified) | > 38.9 | 26.9 µM | – |
| CN(c1ccccc1)C1C(=O)N(c2ccccc2)C1/C=C/c1ccccc1 (stereo unspecified) | – | – | inactive |
| CC(NC(=O)c1ccccc1)NC(=O)C(C)C(=O)Nc1ccccc1 (stereo unspecified) | – | – | inactive |
| N#CNC(=NCc1ccccc1)NCCc1c[nH]c2ccccc12 | 145 | 162 µM | – |
| CC[N+]1(C)CCC(O)(c2ccccc2)C(C(=O)c2ccccc2)C1 (stereo unspecified) | – | – | inactive |
| COC(=O)/C=C/c1cnc2c(c1)oc(=O)n2CCc1ccccn1 | > 200 | 24 µM | – |
| Cc1nc(Nc2nc3ccccc3[nH]2)nc(Cl)c1CCCl | – | – | inactive |
| COc1ccc(Nc2nc3ccc(C(F)(F)F)cc3nc2C(=O)O)cc1 | > 200 | 20.4 µM | – |
| O=C([O-])[C+](C=Cc1cccc2ccccc12)C(=O)O | > 708 | 257 µM | – |
| Cc1cn(C2CC(N(O)C(N)=O)C(CO)O2)c(=O)[nH]c1=O (stereo unspecified) | > 200 | > 200 µM and 107 µM | – |
| CN1CCN(CCn2c3c4ccccc4ccc3c3oc(=O)c4ccccc4c32)CC1 | > 100 | 3.02 µM | – |
| CCOP(=O)(OCC)C(Nc1cccc(F)c1)c1ccccc1 (stereo unspecified) | > 200 | 123 µM | – |

| SMILES | EC50 [µM] | IC50 | outcome |
| --- | --- | --- | --- |
| O=C1OC2C=CC1C1(CCOC1=O)C2 (stereo unspecified) | > 200 | > 200 µM | – |
| CCCOP(=O)(OCCC)OC(C(F)(F)F)C(F)(F)F | > 200 | > 200 µM | – |
| C[N+](C)(N)c1nc(N)c(C#N)c(C#N)c1C#N | > 200 | 33.1 µM | – |
| CCn1cc(/C=C/C(C)c2cn(CC)c(=O)[nH]c2=O)c(=O)[nH]c1=O (stereo unspecified) | – | – | inactive |
| O=C(O)CCC(NC(=O)OCc1ccccc1)C(=O)NC(Cc1cnc[nH]1)C(=O)O (stereo not drawn) (Cbz-Glu-His-OH; configuration not given here) | > 200 | > 200 µM | – |
| COc1ccc(C(OC(=O)[C@H](O[Si](C)(C)C(C)(C)C)[C@@H](NC(=O)c2ccccc2)c2ccccc2)c2ccc(OC)cc2)cc1 | > 200 | 95.5 µM | – |
| O=C(c1ccc(Cl)cc1)c1cnc(Nc2ccccc2Cl)s1 | > 10.7 | > 10.7 µM | – |
| COC(=O)NN=C1C(C)(C)C(=O)C1(C)C | > 85.1 | > 85.1 µM | – |
| COc1cccc(C=C2N=C(c3ccccc3)N(n3c(-c4ccccc4)nc4ccccc4c3=O)C2=O)c1 | > 200 | 37.2 µM | – |
| O=C(O)CNCc1c2ccccc2[n+]([O-])c2ccccc12 | – | – | inactive |
| O=C1CCC2(CC(Br)C(=O)c3ccccc32)C(=O)N1 (stereo unspecified) | > 407 | 81.3 µM | – |
| CCCCN(S(=O)(=O)c1ccccc1)S(=O)(=O)c1ccccc1 | > 200 | > 200 µM | – |
| O=C(O)c1ccccc1O | > 1820 | 692 µM | inactive |
| N#Cc1ccc(Oc2nc3ccccc3nc2-c2ccccc2)cc1 | > 200 | > 200 µM | – |
| COC(=O)C(C)(C)NC(=O)C(Cc1ccccc1)NC(=O)C(C)(C)NC(=O)OCc1ccccc1 (stereo unspecified) (Cbz-[Aib]-[ξF]-[Aib]-OMe) | 195 | 741 µM | – |
| C=CCn1c(-c2cc(C(C)(C)C)c(O)c(C(C)(C)C)c2)cs/c1=N\C(P(=O)(O)O)P(=O)(O)O | > 200 | 21.4 µM | – |
| CN(C)C(CN)CC1=C(CC(CN)N(C)C)CCC1 (stereo unspecified) | – | – | inactive |
| C=C[C@@H]1c2ccccc2C=C[C@]12C=CC(=O)CC2 | > 57.5 | 21.9 µM | – |
| CC(C)=CCC[C@@H](C)C1=C(O)C(Nc2ccccc2Cl)=C(C)C(=O)C1=O | > 200 | 6.31 µM | – |
| COC(=O)c1cc2c(C(=O)OC)cc1CSCc1cccc(c1)CSC2 | > 200 | > 200 µM | – |
| COC1/C=C\OC2(C)Oc3c(C)c(O)c4c(O)c(c(/C=N\OCCCc5ccccc5)c(O)c4c3C2=O)NC(=O)/C(C)=C\C=C/C(C)C(O)C(C)C(O)C(C)C(OC(C)=O)C1C (stereo unspecified) | > 200 | 6.61 µM | – |
| NC12CC3CC(C1)CC(Cl)(C3)C2 | > 1120 | > 1120 µM | – |

| SMILES | EC50 [µM] | IC50 | outcome |
| --- | --- | --- | --- |
| CC(C)C(NC(=O)OCC1c2ccccc2-c2ccccc21)C(=O)NC(CCC(=O)OC(C)(C)C)C(=O)OC(C)(C)C (stereo unspecified) (Fmoc-Val-Glu(OtBu)-OtBu; configuration not given here) | > 200 | 24.5 µM | – |
| COc1cc(O)c2c(=O)c3c(OC)c(O)ccc3oc2c1 | > 200 | 56.2 µM | – |
| COc1ccc(C(C)NNC(=O)c2ccncc2)c(OC)c1 (stereo unspecified) | > 200 | 29.5 µM | – |
| CCCCCCCCCCCC1=C(O)C(N[C@@H]2CCCCC2N)=CC(=O)C1=O (stereo partly specified) | > 3.72 | > 3.72 µM | – |
| CN1C(=O)C(O)(Cc2nccc3ccccc23)c2ccccc21 (stereo unspecified) | > 200 | 36.3 µM | – |
| Cc1nc2nn(Cc3ccccc3)cc2c(=O)o1 | > 1020 | 57.5 µM | – |
| Cc1ccc(NC(=O)C(=O)CC(=O)c2c(C)n([O-])c3ccccc3[n+]2=O)cc1 | > 13.2 | > 13.2 µM | – |
| COc1ccc(Cc2nc3ccccc3[nH]2)cc1OC | > 200 | 89.1 µM | – |
| CC(C)OP(=O)(OC(C)C)/C(C#N)=C/c1ccco1 | > 200 | > 200 µM | – |
| CCOP(=O)(OCC)C(c1ccccc1)N(C(=O)NC(F)(F)F)c1cccc(F)c1 (stereo unspecified) | > 200 | 95.5 µM | – |
| C/C(CC(=O)Nc1ccc([N+](=O)[O-])cc1)=N/N=C(N)N | > 67.6 | > 67.6 µM | – |
| CC(=O)Oc1ccc(/C=C/S(=O)(=O)CS(=O)(=O)/C=C/c2ccc(OC(C)=O)c(OC(C)=O)c2)cc1OC(C)=O | > 20 | 11 µM | – |
| CC(C)CC(NC(=O)C(CSc1ccc([N+](=O)[O-])cc1)Cc1ccccc1)C(=O)Nc1ccccc1 (stereo unspecified) | > 100 | > 100 µM | – |
| COC(=O)C1(C(=O)OC)Cc2ccc(OC)cc2C2=C1C(=O)c1ccccc1C2=O | > 20 | 0.275 µM | – |
| CCCNC(=O)Cn1c(-c2ccccc2)cc2ccccc21 | > 200 | > 200 µM | – |
| OCCCNCC(O)c1ccc(OCc2ccccc2)c(OCc2ccccc2)c1 (stereo unspecified) | > 200 | 5.13 µM | – |
| CSCCC(NP(=S)(c1ccccc1)c1ccccc1)C(=O)O (stereo unspecified) | > 200 | > 200 µM | – |
| CC(C)=CCC/C(C)=C/Cc1cc2ccc(=O)oc2cc1O | > 63.1 | 32.4 µM | – |
| O=C(CCCN1CCC2(CC1)NC(=O)c1ccccc1O2)c1ccc(F)cc1 | > 200 | > 200 µM | – |
| Cc1oc2c(C)c3oc(=O)cc(C)c3cc2c1CCl | > 20 | 2.95 µM | – |
| Cc1cn(C(C)OCCN(O)C(=O)Oc2ccccc2)c(=O)[nH]c1=O (stereo unspecified) | > 200 | > 200 µM | – |
